Square brackets hold non-standard residues; d marks the D form. Peptide text beside a SMILES is read from it. Aib = CC(C)(N)C(=O)O
Columns and labels:
human GLP-2 receptor = biological target: T1, human GLP-2 receptor (Homo sapiens, UniProt O95838, D470N); assay: GLP-2 receptor potency assay (cAMP AlphaScreen, HEK293 cells stably expressing GLP-2R); format: cell-based; settings: cAMP response, HEK293 cells expressing human GLP-2R
T1 sequence (O95838 1-553 D470N): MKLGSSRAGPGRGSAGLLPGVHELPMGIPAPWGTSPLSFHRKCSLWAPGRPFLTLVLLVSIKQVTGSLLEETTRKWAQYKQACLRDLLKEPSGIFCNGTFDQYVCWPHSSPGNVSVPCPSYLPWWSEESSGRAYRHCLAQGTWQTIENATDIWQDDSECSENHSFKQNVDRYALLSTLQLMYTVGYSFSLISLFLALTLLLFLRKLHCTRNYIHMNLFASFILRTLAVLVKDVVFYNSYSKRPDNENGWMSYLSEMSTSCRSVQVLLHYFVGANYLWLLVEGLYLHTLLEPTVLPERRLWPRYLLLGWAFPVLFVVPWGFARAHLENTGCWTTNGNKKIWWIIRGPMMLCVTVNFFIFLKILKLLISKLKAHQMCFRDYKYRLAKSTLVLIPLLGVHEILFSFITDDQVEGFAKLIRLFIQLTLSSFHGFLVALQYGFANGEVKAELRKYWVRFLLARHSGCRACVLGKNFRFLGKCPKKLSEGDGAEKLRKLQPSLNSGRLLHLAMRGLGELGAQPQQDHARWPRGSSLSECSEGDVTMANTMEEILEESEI
Procedure, shortened: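 HEK293 cells stably expressing human GLP-2R (G418-selected clone); intracellular cAMP measured by AlphaScreen. Responses normalized to positive and vehicle controls; EC50 and maximal response from 4-parameter logistic fit.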

human GLP-1 receptor = biological target: T2, human GLP-1 receptor (Homo sapiens, UniProt P43220); assay: GLP-1 receptor potency assay (cAMP AlphaScreen, HEK293 cells stably expressing GLP-1R); format: cell-based; settings: cAMP response, HEK293 cells expressing human GLP-1R; read-out: EC50 GLP-1
T2 construct: expressed in transfected cells
Procedure, shortened: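 A HEK293 clone stably expressing cloned human GLP-1R (G418-selected) was stimulated with compound. Intracellular cAMP was measured by AlphaScreen. Responses were normalized to positive and vehicle controls, and EC50 and maximal response were fitted by 4-parameter logistic regression.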

T2 sequence (P43220 24-463): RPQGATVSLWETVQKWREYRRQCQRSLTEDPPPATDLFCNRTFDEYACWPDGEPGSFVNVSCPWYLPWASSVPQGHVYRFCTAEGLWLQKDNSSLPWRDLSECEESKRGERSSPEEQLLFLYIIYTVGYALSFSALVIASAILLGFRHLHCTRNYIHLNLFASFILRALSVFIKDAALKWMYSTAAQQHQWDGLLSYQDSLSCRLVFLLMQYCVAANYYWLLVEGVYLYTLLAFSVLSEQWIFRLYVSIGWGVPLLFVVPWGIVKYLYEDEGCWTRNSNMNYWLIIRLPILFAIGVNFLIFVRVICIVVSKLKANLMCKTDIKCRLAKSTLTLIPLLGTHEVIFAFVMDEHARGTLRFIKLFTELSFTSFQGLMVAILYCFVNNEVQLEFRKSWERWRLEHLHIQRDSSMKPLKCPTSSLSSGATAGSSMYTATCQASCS

Row | SMILES | EC50 (human GLP-2 receptor) [pM] | EC50 (human GLP-1 receptor) [pM]
1 | CC[C@H](C)[C@H](NC(=O)[C@H](Cc1ccccc1)NC(=O)[C@H](CC(=O)O)NC(=O)[C@H](CCCNC(=N)N)NC(=O)[C@H](C)NC(=O)[C@H](C)NC(=O)[C@H](CCC(N)=O)NC(=O)[C@H](CCC(=O)O)NC(=O)[C@H](CC(=O)O)NC(=O)[C@H](CC(C)C)NC(=O)[C@@H](NC(=O)[C@@H](NC(=O)[C@H](C)NC(=O)[C@H](CC(C)C)NC(=O)[C@H](CCC(=O)O)NC(=O)[C@H](CC(=O)O)NC(=O)[C@@H](NC(=O)[C@H](Cc1ccccc1)NC(=O)[C@@H](NC(=O)CNC(=O)[C@H](CCC(=O)O)NC(=O)C(C)(C)NC(=O)[C@@H](N)Cc1c[nH]cn1)[C@@H](C)O)[C@@H](C)O)[C@@H](C)O)[C@@H](C)CC)C(=O)N[C@@H](C)C(=O)N[C@@H](Cc1c[nH]c2ccccc12)C(=O)N[C@@H](CC(C)C)C(=O)N[C@@H](CCC(N)=O)C(=O)N[C@@H](C)C(=O)N[C@@H](CCC(N)=O)C(=O)N[C@@H](CCCCN)C(=O)N[C@H](C(=O)N[C@H](C(=O)N[C@@H](CC(=O)O)C(=O)O)[C@@H](C)O)[C@@H](C)CC [Compound 29] (H-H[Aib]EGTFTDELATILDEQAARDFIAWLQAQKITD-OH) | 110 | 44
2 | CC[C@H](C)[C@H](NC(=O)[C@H](CC(C)C)NC(=O)[C@H](Cc1c[nH]c2ccccc12)NC(=O)[C@H](C)NC(=O)[C@@H](NC(=O)[C@H](Cc1ccccc1)NC(=O)[C@H](CC(=O)O)NC(=O)[C@H](CCCNC(=N)N)NC(=O)[C@H](C)NC(=O)[C@H](C)NC(=O)[C@H](CCCCN)NC(=O)CNC(=O)[C@H](CC(=O)O)NC(=O)[C@H](CC(C)C)NC(=O)[C@@H](NC(=O)[C@@H](NC(=O)[C@H](C)NC(=O)[C@H](CC(C)C)NC(=O)[C@H](CCC(=O)O)NC(=O)[C@H](CO)NC(=O)[C@@H](NC(=O)[C@H](Cc1ccccc1)NC(=O)[C@H](CO)NC(=O)CNC(=O)[C@H](CCC(=O)O)NC(=O)C(C)(C)NC(=O)[C@@H](N)Cc1c[nH]cn1)[C@@H](C)O)[C@@H](C)O)[C@@H](C)CC)[C@@H](C)CC)C(=O)N[C@@H](C)C(=O)N[C@@H](Cc1c[nH]cn1)C(=O)N[C@@H](CCCCN)C(=O)N[C@H](C(=O)N[C@H](C(=O)N[C@@H](CC(=O)O)C(=O)O)[C@@H](C)O)[C@@H](C)CC [Compound 31] (H-H[Aib]EGSFTSELATILDGKAARDFIAWLIAHKITD-OH) | 78 | 20
3 | CC[C@H](C)[C@H](NC(=O)[C@H](CC(C)C)NC(=O)[C@H](Cc1c[nH]c2ccccc12)NC(=O)[C@H](C)NC(=O)[C@@H](NC(=O)[C@H](Cc1ccccc1)NC(=O)[C@H](CC(=O)O)NC(=O)[C@H](CCCNC(=N)N)NC(=O)[C@H](C)NC(=O)[C@H](C)NC(=O)[C@H](CCCCN)NC(=O)CNC(=O)[C@H](CC(=O)O)NC(=O)[C@H](CC(C)C)NC(=O)[C@@H](NC(=O)[C@@H](NC(=O)[C@H](C)NC(=O)[C@H](CC(C)C)NC(=O)[C@H](CCC(=O)O)NC(=O)[C@H](CO)NC(=O)[C@H](CO)NC(=O)[C@H](Cc1ccccc1)NC(=O)[C@@H](NC(=O)CNC(=O)[C@H](CCC(=O)O)NC(=O)C(C)(C)NC(=O)[C@@H](N)Cc1c[nH]cn1)[C@@H](C)O)[C@@H](C)O)[C@@H](C)CC)[C@@H](C)CC)C(=O)N[C@@H](C)C(=O)N[C@@H](Cc1c[nH]cn1)C(=O)N[C@@H](CCCCN)C(=O)N[C@H](C(=O)N[C@H](C(=O)N[C@@H](CC(=O)O)C(=O)O)[C@@H](C)O)[C@@H](C)CC [Compound 32] (H-H[Aib]EGTFSSELATILDGKAARDFIAWLIAHKITD-OH) | 150 | 38
